Assay results reported in patent EP0326490B2, “Synthetic peptides and mixtures thereof for detecting HIV antibodies” (ADALTIS INC., priority 1988, dated 2004).

Test system: HIV-2 positive sera
Test: ELISA, single peptides identifying HIV-2 positive sera
Type: binding, human
Settings: single peptide
Method: A preferred convenient and classical technique for the determination of antibodies against AIDS virus using a peptide or a peptide mixture of the present invention is an enzyme-linked immunosorbent assay (ELISA). According to this test a peptide or a peptide mixture of the present invention is adsorbed onto the wells of a microtiter plate. The wells are then treated with sera to be tested. After washing, anti-human IgG labeled with peroxidase is added to the wells. The determination of the peroxidase is performed with a corresponding substrate, e.g. with o-phenylene diamine. Also in this procedure the peroxidase can be exchanged by another label, e.g. by a radioactive or fluorescence label. […]
TABLE 4 provides the results of single peptides which were individually evaluated in identifying known HIV-2 positive sera.
Each well of the microtiter plate is saturated with 100 µl of a solution containing a peptide or mixture of peptides (5 µg/ml) and left overnight. […] Serum samples to be analyzed are diluted with specimen buffer (washing buffer plus casein, 0.05% w/v). […] After 10 minutes the contents of each well is treated with 0.1 ml 2N H2SO4 and the optical density read at 450 nm. […]

With `CC[C@H](C)[C@H](NC(=O)[C@H](CCC(=O)O)NC(=O)[C@@H](NC(=O)[C@@H](N)CC(C)C)C(C)C)C(=O)N[C@H](C(=O)N1CCC[C@H]1C(=O)N[C@H](C(=O)NCC(=O)N[C@@H](Cc1ccccc1)C(=O)N[C@@H](C)C(=O)N1CCC[C@H]1C(=O)N[C@H](C(=O)N[C@@H](CCCCN)C(=O)N[C@@H](CCC(=O)O)C(=O)N[C@@H](CCCCN)C(=O)N[C@@H](CCCNC(=N)N)C(=O)N[C@@H](Cc1ccc(O)cc1)C(=O)N[C@@H](CO)C(=O)N[C@@H](CO)C(=O)N[C@@H](C)C(=O)N[C@@H](Cc1c[nH]cn1)C(=O)NCC(=O)N[C@@H](CCCNC(=N)N)C(=O)O)[C@@H](C)O)[C@@H](C)CC)[C@@H](C)O` [Peptide 203] the “%Positive sera correctly Identified” value was 100%.
In the case of `CC[C@H](C)[C@H](NC(=O)[C@H](CCC(=O)O)NC(=O)[C@@H](NC(=O)[C@@H](N)CC(C)C)C(C)C)C(=O)N[C@H](C(=O)N1CCC[C@H]1C(=O)N[C@H](C(=O)NCC(=O)N[C@@H](Cc1ccccc1)C(=O)N[C@@H](C)C(=O)N1CCC[C@H]1C(=O)N[C@H](C(=O)N[C@@H](CCCCN)C(=O)N[C@@H](CCC(=O)O)C(=O)N[C@@H](CCCCN)C(=O)N[C@@H](CCCNC(=N)N)C(=O)O)[C@@H](C)O)[C@@H](C)CC)[C@@H](C)O` [Peptide 204], the “%Positive sera correctly Identified” value is reported as 100%.
